Test results as given in ChEMBL document CHEMBL1153145, “Novel lead for potent inhibitors of breast cancer resistance protein (BCRP)” (Bioorg Med Chem Lett, 2010).

Tests used:
[1] = target: T1, Broad substrate specificity ATP-binding cassette transporter ABCG2 (Homo sapiens, UniProt Q9UNQ0); assay: Inhibition of BCRP expressed in MCF7 MX cells by Hoechst 33342 staining; type: cell-based
T1 sequence (Q9UNQ0 whole entry): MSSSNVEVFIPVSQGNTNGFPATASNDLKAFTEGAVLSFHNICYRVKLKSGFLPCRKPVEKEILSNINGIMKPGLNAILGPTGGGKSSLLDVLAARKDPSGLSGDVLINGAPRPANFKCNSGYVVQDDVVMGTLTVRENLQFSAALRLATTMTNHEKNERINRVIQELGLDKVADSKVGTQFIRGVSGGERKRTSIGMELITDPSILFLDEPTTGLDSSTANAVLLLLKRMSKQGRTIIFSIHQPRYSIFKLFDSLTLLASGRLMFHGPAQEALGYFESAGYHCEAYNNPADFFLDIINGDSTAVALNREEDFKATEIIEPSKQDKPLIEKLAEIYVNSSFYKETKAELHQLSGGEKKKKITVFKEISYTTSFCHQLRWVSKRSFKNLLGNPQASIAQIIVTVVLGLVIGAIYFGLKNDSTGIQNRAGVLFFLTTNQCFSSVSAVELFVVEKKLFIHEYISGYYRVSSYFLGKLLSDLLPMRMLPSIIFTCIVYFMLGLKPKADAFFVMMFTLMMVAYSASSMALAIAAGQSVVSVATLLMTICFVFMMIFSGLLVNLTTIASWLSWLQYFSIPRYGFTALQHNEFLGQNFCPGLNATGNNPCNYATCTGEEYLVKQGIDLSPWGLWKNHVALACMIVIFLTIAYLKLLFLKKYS

[2] = target: T1, Broad substrate specificity ATP-binding cassette transporter ABCG2; assay: Inhibition of BCRP expressed in MDCK cells by pheophorbide A assay; type: cell-based
[3] = target: Multidrug resistance-associated protein 1 (Homo sapiens, UniProt P33527); assay: Inhibition of MRP1 assessed as calcein AM accumulation by fluorescence assay
Sequence of Multidrug resistance-associated protein 1 (P33527 whole entry): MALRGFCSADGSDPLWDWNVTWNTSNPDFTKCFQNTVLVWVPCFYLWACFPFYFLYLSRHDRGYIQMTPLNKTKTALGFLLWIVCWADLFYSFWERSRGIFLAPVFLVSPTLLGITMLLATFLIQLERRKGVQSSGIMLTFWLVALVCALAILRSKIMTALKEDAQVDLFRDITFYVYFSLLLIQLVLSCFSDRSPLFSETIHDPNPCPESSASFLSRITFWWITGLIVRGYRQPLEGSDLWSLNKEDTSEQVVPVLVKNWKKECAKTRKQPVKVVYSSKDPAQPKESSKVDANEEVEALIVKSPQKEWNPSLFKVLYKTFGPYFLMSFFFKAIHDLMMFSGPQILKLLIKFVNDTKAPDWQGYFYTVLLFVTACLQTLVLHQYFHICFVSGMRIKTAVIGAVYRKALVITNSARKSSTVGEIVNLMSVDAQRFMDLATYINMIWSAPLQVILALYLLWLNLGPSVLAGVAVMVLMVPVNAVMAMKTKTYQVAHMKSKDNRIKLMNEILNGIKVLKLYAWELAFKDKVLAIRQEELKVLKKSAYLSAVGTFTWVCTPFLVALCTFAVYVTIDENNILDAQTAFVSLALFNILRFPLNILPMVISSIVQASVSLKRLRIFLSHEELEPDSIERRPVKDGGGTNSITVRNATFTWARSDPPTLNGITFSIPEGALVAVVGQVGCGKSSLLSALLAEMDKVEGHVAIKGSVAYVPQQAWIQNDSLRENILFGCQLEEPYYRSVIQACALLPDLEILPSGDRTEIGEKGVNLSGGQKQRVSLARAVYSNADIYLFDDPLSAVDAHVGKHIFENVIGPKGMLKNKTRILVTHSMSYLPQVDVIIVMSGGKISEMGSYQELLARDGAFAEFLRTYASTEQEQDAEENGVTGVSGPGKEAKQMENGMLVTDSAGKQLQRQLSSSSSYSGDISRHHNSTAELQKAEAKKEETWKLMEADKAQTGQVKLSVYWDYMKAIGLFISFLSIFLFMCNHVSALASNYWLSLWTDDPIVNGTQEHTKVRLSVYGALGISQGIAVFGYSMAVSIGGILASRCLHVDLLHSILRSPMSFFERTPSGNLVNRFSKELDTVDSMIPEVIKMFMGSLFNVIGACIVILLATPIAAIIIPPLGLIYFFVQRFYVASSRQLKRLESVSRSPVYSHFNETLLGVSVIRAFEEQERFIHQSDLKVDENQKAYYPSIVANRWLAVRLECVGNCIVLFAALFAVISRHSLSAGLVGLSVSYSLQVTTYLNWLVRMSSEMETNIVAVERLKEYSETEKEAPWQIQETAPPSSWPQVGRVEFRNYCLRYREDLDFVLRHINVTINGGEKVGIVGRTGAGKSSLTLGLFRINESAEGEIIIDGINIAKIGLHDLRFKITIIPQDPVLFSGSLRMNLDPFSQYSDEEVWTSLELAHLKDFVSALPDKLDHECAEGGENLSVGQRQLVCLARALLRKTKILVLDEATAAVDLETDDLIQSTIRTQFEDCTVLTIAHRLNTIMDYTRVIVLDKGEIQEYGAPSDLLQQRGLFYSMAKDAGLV

Row | Compound | IC50 [1] | IC50 [2] | IC50 [3]
1 | Nc1ccccc1C(=O)Nc1ccc(CCN2CCc3ccccc3C2)cc1 | 17.8 µM | 20.9 µM | –
2 | COc1cc2c(cc1OC)CN(CCc1ccc(NC(=O)c3ccc(N)cc3)cc1)CC2 | 219 µM | 98.2 µM | –
3 | COc1cc2c(cc1OC)CN(CCc1ccc(NC(=O)c3cc(OC)c(OC)cc3NC(=O)c3cnc4ccccc4c3)cc1)CC2 | 0.68 µM | 0.85 µM | –
4 | COc1cc2c(cc1OC)CN(CCc1ccc(NC(=O)c3ccccc3[N+](=O)[O-])cc1)CC2 | 77.6 µM | 40 µM | –
5 | Nc1ccccc1NC(=O)Nc1ccc(CCN2CCc3ccccc3C2)cc1 | 102 µM | 74.1 µM | –
6 | COc1cc2c(cc1OC)CN(CCc1ccc(NC(=O)Nc3ccc(N)cc3)cc1)CC2 | 74.1 µM | 46.4 µM | –
7 | COc1cc2c(cc1OC)CN(CCc1ccc(NC(=O)Nc3ccccc3[N+](=O)[O-])cc1)CC2 | 10.2 µM | 9.08 µM | –
8 | COc1cc2c(cc1OC)CN(CCc1ccc(NC(=O)c3ccccc3NC(=O)c3ccc([N+](=O)[O-])cc3)cc1)CC2 | 0.69 µM | 0.63 µM | > 20 µM
9 | COc1ccc(C(=O)Nc2ccccc2NC(=O)Nc2ccc(CCN3CCc4cc(OC)c(OC)cc4C3)cc2)cc1OC | 10.2 µM | 6.98 µM | –

Second part, the molecule after the results:

Row | IC50 [1] | IC50 [2] | IC50 [3] | Compound
10 | 0.93 µM | 0.86 µM | > 20 µM | COc1ccc(C(=O)Nc2ccccc2C(=O)Nc2ccc(CCN3CCc4cc(OC)c(OC)cc4C3)cc2)cc1OC
11 | 51.3 µM | 45.7 µM | – | O=C(Nc1ccc(CCN2CCc3ccccc3C2)cc1)c1ccccc1[N+](=O)[O-]
12 | 32.4 µM | 20.7 µM | – | COc1cc2c(cc1OC)CN(CCc1ccc(NC(=O)c3ccccc3N)cc1)CC2
13 | 66.1 µM | 58.4 µM | – | COc1cc2c(cc1OC)CN(CCc1ccc(NC(=O)Nc3ccccc3N)cc1)CC2
14 | 3.89 µM | 2.61 µM | – | COc1cc2c(cc1OC)CN(CCc1ccc(NC(=O)Nc3ccc([N+](=O)[O-])cc3)cc1)CC2
15 | 6.76 µM | 8.71 µM | – | O=C(Nc1ccc(CCN2CCc3ccccc3C2)cc1)Nc1ccccc1[N+](=O)[O-]
16 | 6.92 µM | 4.38 µM | – | COc1cc2c(cc1OC)CN(CCc1ccc(NC(=O)c3ccc([N+](=O)[O-])cc3)cc1)CC2
17 | 0.54 µM | 0.5 µM | > 20 µM | COc1cc2c(cc1OC)CN(CCc1ccc(NC(=O)c3ccccc3NC(=O)Nc3ccc([N+](=O)[O-])cc3)cc1)CC2
